# Like-named read-outs stand apart in the source and are kept apart here.
# How the values were obtained:
# [1] = Solubility testing of harmine salts (gravimetric, temperature-dependent); type: physicochemical; settings: for solubility at 48 h: thermodynamic from solid; for Solubility compared with harmine hydrochloride: in words, data in water
# Experimental: Four 250 mL glass jacketed beakers are set up, which are connected with silicone hoses and connected to a Julabo F25 HE thermostat in order to be able to set a constant temperature. In the beakers there is a Pt100 sensor for temperature monitoring, a stopper with a hole that is sealed with play dough and a vial holder with space for four 4 ml vials for a quadruple determination of the solubility. The beakers are located on a strong magnetic stirrer plate so that the temperature is distributed as homogeneously as possible in the liquid medium. Water is used as the medium. The Pt100 sensors and the Julabo are connected to a measuring computer, which controls the Julabo and the temperatures of the Pt100 sensors can be read.
# A Sartorius LE26P microbalance with an accuracy of ±0.01 mg is used for the gravimetric determination of the solubility in mass percent.
# 4 ml vials are filled with 1-2 mL of the respective solvent and equipped with a stirring magnet. The solid to be measured is then added until it is supersaturated. The prepared vials are sealed and placed in the vial holder and equilibrated in the apparatus for 48 hours at the temperature to be examined. After 24 hours, an equilibrium between the solid and liquid phases should have been reached. The liquid phase is removed and transferred to a second vial via a Whatman 20 μm PTFE pre-syringe filter. The tools used, such as the pre-syringe filter, syringe and cannula, are initially cooled or heated to the temperature to be measured. The second vial is first empty, then weighed with the solution and finally evaporated again to ensure constant mass.
# At least when the data in water are considered. […] The solubilities are summarized in the table 14 below and in FIGS. 59 and 60: […]
# [2] = Polymorph and salt screening: stability and evaluation of solid state forms; type: physicochemical
# Text: The form scNF1 was also created in the course of cooling crystallizations in water/acetone (70/30), (70/30), water/dioxane water/THF (70/30) and water/acetonitrile (70/30). In addition, the form scNF1 was created by gas diffusion crystallizations of water/1,4-dioxane, water/2-propanol and water/acetonitrile. In long-term slurries, scNF1 was successfully produced with acetone/water (80/20) and acetonitrile/water (90/10). Rapid precipitations of the form scNF1 with the antisolvent water are achieved with the solvents acetone and acetonitrile. Form scNF1 can also be crystallized by evaporating the solvent water.
# The form scNF1 is Harmine-HCl dihydrate, as could be determined by means of TGA after static storage (RT/100% RH for 7 days). […] A more detailed characterization of the form scNF1 was not requested by the client.
# In the course of the screening performed, 14 new solid-phases were detected by using XRPD.
# [3] = Blood plasma profiles of harmine and harmol in healthy volunteers; type: in vivo, Human; settings: ~3.5 mg/kg
# [4] = Experimental: Thus, the present inventors performed an additional screening, in which different compositions of harmine were manufactured and their solubility in water was examined.
# To this end, in a first experiment 1 g of harmine freebase was added to […] of dH2O to yield a final concentration of 20% (w/w). Then, the acids mentioned above were individually added to the solution in different molar rations (e.g. 1:1 or 2:1) and it was examined, whether the acids can solubilize harmine freebase by protonation or complex formation.
# [5] = pKa and solubility data of harmine and the acids used in the salt screening; type: physicochemical
# [6] = Solubility of harmine glucuronate for loading of TIP particles; type: physicochemical
# Text: Loading harmine or its salt into TIP particles: FIG. 12 depicts SEM images of unsuccessful TIP loading with Harmine HCl (A; 1% in EtOH) and successful loadings with Harmine HCl (B; 0.1% in EtOH) and Harmine Glucuronate (C; 25% in H2O). As shown, TIP particles can be loaded with Harmine HCl, but only when using very low substance concentrations (0.1%) in an organic solvent such as EtOH. Loading with higher concentrations (1%) leads to external crystallization. Moreover, using H2O as solvent, triggers the rapid precipitation of HRM HCl as freebase, when it is exposed to basic residues within the TIP particles. […] Regarding the latter point, it could be shown that the loading process of the TIP particles is most efficient, when adding highly concentrated drug substance solutions (either in EtOH, H2O or DMSO) to the particles. Loading TIP particles with harmine glucuronate yielded exceptional results. […] It is thought that this property of HRM GLU is caused by its highly amorphous structure, leading to less crystallization compared to HRM HCl (which crystallizes readily as freebase, especially when exposed to basic residues within the TIP particles).
# Thus, harmine glucuronate is very practical to handle on a large scale (e.g. up to 1 Kg of HRM GLU can be dissolved in 1 L of water), yields very efficient loading of the TIP particles.
# [7] = Dose-response study of DMT and harmine in healthy subjects: harmine PK profiles; settings: 180 mg harmine with 90 mg DMT formulated in TIP, ODTs sublingual in 3 dosing intervals every 20 minutes, two subjects
# [8] = Solubility of harmine in the solvents used in the salt screening; type: physicochemical; settings: for solubility: organic solvent or mixture
# Experimental: The drug substance Harmine was investigated for a salt screening of different salts by crystallization experiments from various solvents and grinding experiments. Solubility experiments were also conducted before starting the salt screening.
# In the following table 3, the different solvents used in the salt screening are summarized.
# [9] = molecular target: T1, monoamine oxidase A (MAO-A) (Homo sapiens, UniProt P21397); settings: cited from earlier work
# T1 sequence (P21397 1-527): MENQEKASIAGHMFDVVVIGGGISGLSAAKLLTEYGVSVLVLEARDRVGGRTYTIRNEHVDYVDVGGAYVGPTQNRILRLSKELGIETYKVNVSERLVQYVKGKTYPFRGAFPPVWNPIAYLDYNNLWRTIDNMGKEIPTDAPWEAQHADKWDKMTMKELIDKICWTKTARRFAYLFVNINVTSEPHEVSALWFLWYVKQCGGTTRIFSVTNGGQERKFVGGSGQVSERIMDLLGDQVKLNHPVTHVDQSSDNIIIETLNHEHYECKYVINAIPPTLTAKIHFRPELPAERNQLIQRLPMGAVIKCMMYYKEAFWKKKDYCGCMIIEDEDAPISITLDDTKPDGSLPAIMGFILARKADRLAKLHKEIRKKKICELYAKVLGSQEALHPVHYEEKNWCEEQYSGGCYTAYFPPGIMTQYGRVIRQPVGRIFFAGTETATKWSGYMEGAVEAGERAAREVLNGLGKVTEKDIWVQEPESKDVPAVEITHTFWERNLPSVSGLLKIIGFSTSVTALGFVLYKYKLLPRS
# [10] = molecular target: T2, monoamine oxidase B (MAO-B) (Homo sapiens, UniProt P27338); settings: cited from earlier work
# T2 sequence (P27338 1-520): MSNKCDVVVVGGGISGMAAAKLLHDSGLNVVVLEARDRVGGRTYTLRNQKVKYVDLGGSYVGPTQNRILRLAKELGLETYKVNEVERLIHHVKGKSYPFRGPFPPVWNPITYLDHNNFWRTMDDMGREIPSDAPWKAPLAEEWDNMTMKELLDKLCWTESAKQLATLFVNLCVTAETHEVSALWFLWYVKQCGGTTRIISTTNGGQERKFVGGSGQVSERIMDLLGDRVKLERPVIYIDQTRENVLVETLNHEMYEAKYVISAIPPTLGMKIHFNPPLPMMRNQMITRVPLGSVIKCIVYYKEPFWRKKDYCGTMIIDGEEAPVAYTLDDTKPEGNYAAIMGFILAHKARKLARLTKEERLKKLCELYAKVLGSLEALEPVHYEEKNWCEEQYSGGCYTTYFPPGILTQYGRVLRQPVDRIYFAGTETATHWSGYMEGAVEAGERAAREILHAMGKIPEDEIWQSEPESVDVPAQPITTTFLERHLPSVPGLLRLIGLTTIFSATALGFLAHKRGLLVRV
# [11] = first pKa value; cited from earlier work
# [12] = ethanol, organic solvent or mixture, EtOH, 25° C., read-out: Solubility at 25° C. (EtOH)
# [13] = ethanol, organic solvent or mixture, EtOH, 37° C., read-out: Solubility at 37° C. (EtOH)
# [14] = water, H2O, 25° C., read-out: Solubility at 25° C. (H2O)
# [15] = water, H2O, 37° C., read-out: Solubility at 37° C. (H20)
molecule,measurement,setting,value
"COc1ccc2c(c1)[nH]c1c(C)nccc12.Cl [Harmine HCl, reference compound]",solubility at 48 h,[1]; [12],6790 µg/mL
same,solubility at 48 h,[1]; [13],7950 µg/mL
same,solubility at 48 h,[1]; [14],24900 µg/mL
same,solubility at 48 h,[1]; [15],53100 µg/mL
same,Solid form change on static storage,[2]; RT/100% RH for 7 days,converts to the form scNF1
same,Cmax,"[3]; human, plasma, oral administration",~80 ng/mL
same,Harmine plasma level,"[3]; oral capsule, 10 healthy volunteers",~80 ng/mL
D-glucuronic acid,Ability of the acid to solubilize harmine freebase,"[4]; 1 g harmine freebase in 5 g dH2O (20% w/w), acid added in molar ratios e.g. 1:1 or 2:1",highest solubility
Harmine Glucuronate,Gravimetric solubility relative to harmin hydrochloride,[1]; 25° C.,about eight times
same,Solubility at 25° C. (EtOH),"[1]; EtOH, 25° C.",4.25 mg/mL
same,Solubility at 37° C. (EtOH),"[1]; EtOH, 37° C.",7.93 mg/mL
same,Solubility at 25° C. (H2O),"[1]; H2O, 25° C.",405.95 mg/mL
same,Solubility at 37° C. (H20),"[1]; H2O, 37° C.",549.52 mg/mL
same,Solubility compared with harmine hydrochloride,[1],extremely improved solubility
same,ΔpKs value of harmine and glucuronic acid,[5],4.27
same,Harmine concentration readily feasible in water,"[4]; harmine + equimolar glucuronic acid in deionized water, 1 g harmine in 5 mL final volume",> 20%
same,Solubility in H2O,"[6]; H2O, RT",~45%
same,Amount that can be dissolved in 1 L of water,[6]; in 1 L of water,up to 1 Kg
same,Bioavailability of harmine (plasma PK profiles),[7],bioavailable
L(−)-Malic acid,ΔpKa,[5]; harmine pKa 7.45 versus first pKa of the acid,3.99
same,ΔpKa,[5]; harmine pKa 7.45 versus second pKa of the acid,2.35
COc1ccc2c(c1)[nH]c1c(C)nccc12.O=P(O)(O)O [Harmine Phosphate],solubility at 48 h,[1]; [12],580 µg/mL
same,solubility at 48 h,[1]; [13],550 µg/mL
same,Solubility compared with harmine hydrochloride,"[1]; listed as Harmine-Phosphate, Phosphate",do not show any better solubility properties
same,Solubility compared with harmine hydrochloride,"[1]; listed as harmine phosphate, Phosphate",significantly worse
same,solubility at 48 h,[1]; [14],11000 µg/mL
same,solubility at 48 h,[1]; [15],12900 µg/mL
same,Evaluation/Remarks: solubility in deuterated solvents,[2]; any deuterated solvent,Since the new form does not show sufficient solubility
"COc1ccc2c(c1)[nH]c1c(C)nccc12 [Harmine, 7-methoxy-1-methyl-9H-pyrido[3,4-b]-indole]",solubility,[8]; 2-picoline,10 mg/mL
same,Solubility in solvent,[8]; 95% methanol | 5% water,almost resolved
same,Anti-Solvent practically insoluble,"[8]; dimethyl carbonate, THF, acetonitrile, methanol, acetone, MEK, dichloromethane (25° C. | 45° C.), chloroform, 1,4-dioxane, water, veratrol, p-xylene, sulfolane, benzonitrile, 95% acetonitrile | 5% water (45° C.), 95% acetone | 5% water (45° C.)",practically insoluble
same,solubility,[8]; dimethyl sulfoxide (DMSO),13 mg/mL
same,solubility,"[8]; dimethylformamide (DMF), dimethylformamid (DMF), souble",33 mg/mL
same,solubility,"[8]; methanol, 45 °C",12 mg/mL
same,solubility,"[8]; 1-methyl-2-pyrrolidone (NMP), souble",80 mg/mL
same,solubility,"[8]; dimethylacetamide, souble",40 mg/mL
same,solubility,"[8]; tetramethylurea, souble",40 mg/mL
same,solubility,[8]; pyridine,205 mg/mL
same,Inhibition of MAO-A,[9],reversibly inhibits
same,Inhibition of MAO-B,[10],does not inhibit
same,pka (½),[11],7.45
COc1ccc2c(c1)[nH]c1c(C)nccc12.Cl.O.O [Harmine-HCl dihydrate],Solid form stability at ambient conditions,"[2]; after 5 weeks at ambient conditions, powder diffractogram",traces of Harmine-HCl were identified
O=C(O)[C@@H](O)[C@H](O)[C@H](O)[C@@H](O)C(=O)O [mucic acid],Ability of the acid to solubilize harmine freebase,[4],not able to solubilize harmine
O=C(O)[C@H](O)[C@@H](O)[C@H](O)[C@H](O)CO [D-gluconic acid],Solubility of harmine with the acid,[4],higher than 15%

# Source: patent publication US20260007643A1, “HIGHLY SOLUBLE FORMULATIONS OF HARMINE” (Reconnect Labs AG, priority 2022, published 2026)
